The source of these data is patent US20140148400A1, “CARBONIC ANHYDRASE INHIBITORS WITH […] ACTIVITY” (METASIGNAL THERAPEUTICS INC., priority 2010, published 2014).

The structures appear in SMILES notation. Read-outs that look alike come from different tables or passages of the source.

In data set [1] the target is hCA I (Homo sapiens, UniProt P00915). The data set is described as follows: In vitro CA inhibition assay, hCA I. It counts as biochemical. The following applies: unit from table title.
Chain of hCA I (P00915 whole entry): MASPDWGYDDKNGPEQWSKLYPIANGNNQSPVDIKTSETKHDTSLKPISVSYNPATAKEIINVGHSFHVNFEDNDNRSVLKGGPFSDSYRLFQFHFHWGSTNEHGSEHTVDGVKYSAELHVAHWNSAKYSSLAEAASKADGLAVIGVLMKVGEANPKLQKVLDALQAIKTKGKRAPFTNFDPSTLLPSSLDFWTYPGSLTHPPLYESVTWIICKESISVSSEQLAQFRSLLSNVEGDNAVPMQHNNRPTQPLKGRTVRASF
For data set [2], the target named is hCA IX (Homo sapiens, UniProt Q16790). The data set is described as follows: In vitro CA inhibition assay, hCA IX. It counts as biochemical. The conditions noted are these: cells with nM printed beside the value.
Data set [3] relates to 4T1 primary tumors. The data set is described as follows: Growth of orthotopically implanted 4T1 primary tumors. It counts as in vivo, female BALB/c mice. The following applies: 1×10^6 cells/mouse orthotopic; tumors established 14 days; daily i.p. for 14 days.
In data set [4] the target is hCA II (Homo sapiens, UniProt P00918). The data set is described as follows: In vitro CA inhibition assay, hCA II. It counts as biochemical.
Data set [5] relates to 4T1 mammary tumor cells. The conditions noted are these: 2×10^5 4T1 cells i.v.; daily i.p. injection for 6 days from 24 hours post inoculation; imaged 24 hours after final dose.
The subject of data set [6] is human CA isoforms. The conditions noted are these: background statement; cited from earlier work.
[7] abbreviates: unit from table title, read-out: hCA II inhibition data in KI.

Compound `Cc1cc(=O)oc2cc(OCCn3c([N+](=O)[O-])cnc3C)ccc12` [MST-248, 7-O-[2-(2-methyl-5-nitro-imidazol-1-yl)ethyl]-4-methylcoumarine] showed a melting point of 238 to 240 °C.

In the case of `N#Cc1cc2ccc(O)cc2oc1=O` [MST-247], affinity in data set [1] was put at a Ki of 104000 nM.

`Cc1cc(=O)oc2cc(OC3OC(C)C(O)C(O)C3O)ccc12` [MST-205, 4-methylumbellifer-7-yl- -L-rhamnopyranoside]: the Ki in data set [1] is more than 100000 nM; in data set [2] it was 201 nM; in data set [4] (setting [7]), more than 100 µM. Also, the “growth of 4T1 primary tumors (caliper-based measurement)” value in data set [3] is given as “Attenuates the Growth of 4T1 Primary Tumors”. Besides, the “formation of metastases by 4T1 mammary tumor cells (tumor-derived bioluminescence)” value in data set [5] is given as “inhibits the formation of metastases”.

As for `Cc1cc(=O)oc2cc(O[C@H]3O[C@H](CO)[C@@H](O)[C@H](O)[C@@H]3O)ccc12` [MST-204, 4-methylumbellifer-7-yl-α-D-mannopyranoside], the “formation of metastases by 4T1 mammary tumor cells (tumor-derived bioluminescence)” value in data set [5] is given as “reduced the formation of metastases”.

Take `Cc1cc(=O)oc2cc(OC3OC(CO)C(O)C(O)C3O)ccc12` (single isomer, unassigned) [MST-203, 4-methylumbellifer-7-yl-1-D-galactopyranoside]: the Ki in data set [1] was 590 nM; in data set [2], 93 nM; in data set [4] (setting [7]), 77 µM.

With `C=CCOc1ccc2oc(=S)ccc2c1` [MST-240, 6-(Allyloxy)-2H-chromene-2-thione], the Ki in data set [4] (setting [7]) is more than 200 µM.

In the case of `CC(C)(C)[Si](C)(C)Oc1ccc2oc(=O)ccc2c1` [MST-230, 6-(tert-Butyldimethylsilyloxy)-2H-chromen-2-one], the Ki in data set [4] (setting [7]) was more than 200 µM.

For the compound `Cc1cc(=O)oc2cc(OC3OC(CO)C(O)C(O)C3O)ccc12` (single isomer, unassigned) [MST-202, 4-methylumbellifer-7-yl- -D-glucopyranoside], the Ki is 1000 nM in data set [1] and more than 100 µM in data set [4] (setting [7]).

On to `O=c1ccc2cc(OCc3cn(-c4ccccc4Cl)nn3)ccc2o1` [MST-225, 6-((1-(2-chlorophenyl)-1H-1,2,3-triazol-4-yl)methoxy)-2H-chromen-2-one], for which the melting point was 164 to 166 °C.

Compound `CC(C)(C)[Si](C)(C)Oc1ccc2ccc(=O)oc2c1` [MST-231, 7-(tert-Butyldimethylsilyloxy)-2H-chromen-2-one] registered a Ki in data set [4] of more than 200 µM.

`Cc1cc(=O)oc2cc(OC3OCC(O)C(O)C3O)ccc12` [MST-201, 4-methylumbellifer-7-yl- -D-xylopyranoside] had a melting point of 223 °C.

For the compound `COc1cc2oc(=O)ccc2cc1[C@@H](O)CC(C)C` [6-(1S-hydroxy-3-methylbutyl)-7-methoxy-2H-chromen-2-one], the “inhibition of all investigated human CA isoforms” value in data set [6] is given as “nonselective, potent inhibitors”.

In the case of `O=c1ccc2ccccc2o1` [unsubstituted coumarin, coumarin], the “inhibition of all investigated human CA isoforms” value in data set [6] is listed as “nonselective, potent inhibitors”.

For the compound `Oc1ccc2oc(=S)ccc2c1` [MST-233, 6-Hydroxy-2H-chromene-2-thione], the Ki in data set [4] (setting [7]) is more than 200 µM.

Turning to `C#CCOc1ccc2ccc(=S)oc2c1` [MST-217, 7-(prop-2-ynyloxy)-2H-chromene-2-thione], the melting point was in the range of 97 to 101 °C.

`Cc1cc(=O)oc2ccc(OCCn3c([N+](=O)[O-])cnc3C)cc12` [MST-249, 6-O-[2-(2-methyl-5-nitro-imidazol-1-yl)ethyl]-4-methylcoumarine]: the melting point lay in the range of 190 to 191 °C.

Usually melting point stands for the temperature of the solid-liquid transition. The Ki is the equilibrium dissociation constant of an inhibitor or competing ligand from its target.
